Here are results for five molecules from ChEMBL document CHEMBL1201862, “PubChem BioAssay data set” (2004).

Molecules are shown by their SMILES. Several values for one entry are separate records, joined by “and”; a condition that tells them apart may be missing. Equal values may be shown once. Activity calls are given as the source filed them. A value given as a limit tells only on which side of the number the result lay.

The nature of experiment [1]: NIH-3T3 fibroblast cytotoxicity, dose response, cytotoxicity control, cell-based, fluorescence, Alamar Blue, secondary assay (AID 2327).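 Further: NIH-3T3 mouse fibroblasts cultured with fluconazole at 8 µg/mL.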 In kind it is functional.
Experiment [2] has as its system Streptococcus sp. 'group A'. The experiment in a line: growth inhibition of control SK(-) GAS strain, dose response, counter-screen for streptokinase expression inhibitor project, luminescence, kanamycin, BacTiterGlo, confirmation (AID 1900). In kind it is functional, organism-based. A general note: A counterscreen serves to expose hits that act by an unwanted route or on another target.

Experiment [3] has as its target T1, Streptokinase A (Streptococcus pyogenes serotype M1, UniProt P10520).
T1 sequence (P10520 whole entry): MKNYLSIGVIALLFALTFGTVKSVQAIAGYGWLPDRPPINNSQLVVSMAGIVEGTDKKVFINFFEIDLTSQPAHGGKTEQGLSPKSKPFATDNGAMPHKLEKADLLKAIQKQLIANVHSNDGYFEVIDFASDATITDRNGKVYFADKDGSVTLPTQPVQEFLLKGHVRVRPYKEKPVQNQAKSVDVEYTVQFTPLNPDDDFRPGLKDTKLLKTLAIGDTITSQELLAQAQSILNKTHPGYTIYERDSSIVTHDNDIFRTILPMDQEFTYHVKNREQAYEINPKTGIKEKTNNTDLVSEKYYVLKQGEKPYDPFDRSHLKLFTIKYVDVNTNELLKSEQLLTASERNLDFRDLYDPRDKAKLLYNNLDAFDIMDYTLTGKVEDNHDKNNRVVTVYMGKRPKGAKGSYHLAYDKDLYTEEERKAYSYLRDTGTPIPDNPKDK
The experiment can be described thus: S. pyogenes streptokinase expression inhibitors, potency, dose response, plasminogen activation absorbance, OD405 (AID 1914).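 Further: secreted streptokinase activity via plasminogen activation per viability signal from cell pellet.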 In kind it is functional, Streptococcus pyogenes M1 GAS.

Experiment [4] concerns the target T2, Calpain-2 catalytic subunit (Sus scrofa, UniProt P43367).
T2 sequence (P43367 whole entry): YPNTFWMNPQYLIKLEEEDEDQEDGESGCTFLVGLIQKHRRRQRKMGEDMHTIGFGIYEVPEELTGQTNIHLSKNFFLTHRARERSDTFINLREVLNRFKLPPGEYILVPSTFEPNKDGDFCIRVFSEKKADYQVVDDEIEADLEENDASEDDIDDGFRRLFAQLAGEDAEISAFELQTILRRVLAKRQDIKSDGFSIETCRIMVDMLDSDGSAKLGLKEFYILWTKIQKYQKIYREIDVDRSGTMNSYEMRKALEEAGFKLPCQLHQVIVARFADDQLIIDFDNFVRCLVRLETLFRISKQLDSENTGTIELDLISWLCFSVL
The experiment can be described thus: pig calpain II inhibitor potency, dose response, biochemical, fluorogenic peptide substrate (AID 1420). In kind it is functional.

Experiment [5] relates to Streptococcus. The experiment can be described thus: Group A Streptococcus viability loss, dose response, counter-screen for streptokinase expression inhibitor project, luminescence, BacTiterGlo (AID 1915).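 Further: potency for reduction of bacterial viability or growth.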 In kind it is functional, organism-based.
Experiment [6] concerns the target Heat shock protein HSP 90-alpha (Homo sapiens, UniProt P07900). In kind it is functional, organism-based.
A short description of experiment [7]: cells.
Experiment [8] relates to INS1. The experiment in a line: beta cell apoptosis inhibitors, cytokine rescue, dose response, luminescence, retest (AID 449756).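 Further: cell death triggered by IL-1 beta plus TNF-alpha plus IFN-gamma mixture; protective hits raise ATP signal compared with cytokine alone wells.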 In kind it is functional, cell-based. The settings on record: Rattus norvegicus.
In experiment [9] the target is Serine/threonine-protein phosphatase PP1-alpha catalytic subunit (Homo sapiens, UniProt P62136). The experiment can be described thus: PP1 phosphatase inhibitors, dose response, biochemical, fluorescence (AID 2394).
Serine/threonine-protein phosphatase PP1-alpha catalytic subunit, sequence (P62136 whole entry): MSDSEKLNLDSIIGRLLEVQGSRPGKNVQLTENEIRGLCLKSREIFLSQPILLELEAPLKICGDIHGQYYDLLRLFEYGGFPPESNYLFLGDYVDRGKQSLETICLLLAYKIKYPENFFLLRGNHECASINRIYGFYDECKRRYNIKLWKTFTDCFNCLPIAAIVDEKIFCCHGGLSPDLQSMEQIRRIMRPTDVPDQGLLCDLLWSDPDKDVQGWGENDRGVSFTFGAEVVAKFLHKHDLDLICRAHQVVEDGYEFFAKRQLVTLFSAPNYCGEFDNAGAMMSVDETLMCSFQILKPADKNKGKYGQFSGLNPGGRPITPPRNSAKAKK
The target of experiment [10] is T3, Histone-lysine N-methyltransferase NSD2 (Homo sapiens, UniProt O96028).
T3 sequence (O96028 whole entry): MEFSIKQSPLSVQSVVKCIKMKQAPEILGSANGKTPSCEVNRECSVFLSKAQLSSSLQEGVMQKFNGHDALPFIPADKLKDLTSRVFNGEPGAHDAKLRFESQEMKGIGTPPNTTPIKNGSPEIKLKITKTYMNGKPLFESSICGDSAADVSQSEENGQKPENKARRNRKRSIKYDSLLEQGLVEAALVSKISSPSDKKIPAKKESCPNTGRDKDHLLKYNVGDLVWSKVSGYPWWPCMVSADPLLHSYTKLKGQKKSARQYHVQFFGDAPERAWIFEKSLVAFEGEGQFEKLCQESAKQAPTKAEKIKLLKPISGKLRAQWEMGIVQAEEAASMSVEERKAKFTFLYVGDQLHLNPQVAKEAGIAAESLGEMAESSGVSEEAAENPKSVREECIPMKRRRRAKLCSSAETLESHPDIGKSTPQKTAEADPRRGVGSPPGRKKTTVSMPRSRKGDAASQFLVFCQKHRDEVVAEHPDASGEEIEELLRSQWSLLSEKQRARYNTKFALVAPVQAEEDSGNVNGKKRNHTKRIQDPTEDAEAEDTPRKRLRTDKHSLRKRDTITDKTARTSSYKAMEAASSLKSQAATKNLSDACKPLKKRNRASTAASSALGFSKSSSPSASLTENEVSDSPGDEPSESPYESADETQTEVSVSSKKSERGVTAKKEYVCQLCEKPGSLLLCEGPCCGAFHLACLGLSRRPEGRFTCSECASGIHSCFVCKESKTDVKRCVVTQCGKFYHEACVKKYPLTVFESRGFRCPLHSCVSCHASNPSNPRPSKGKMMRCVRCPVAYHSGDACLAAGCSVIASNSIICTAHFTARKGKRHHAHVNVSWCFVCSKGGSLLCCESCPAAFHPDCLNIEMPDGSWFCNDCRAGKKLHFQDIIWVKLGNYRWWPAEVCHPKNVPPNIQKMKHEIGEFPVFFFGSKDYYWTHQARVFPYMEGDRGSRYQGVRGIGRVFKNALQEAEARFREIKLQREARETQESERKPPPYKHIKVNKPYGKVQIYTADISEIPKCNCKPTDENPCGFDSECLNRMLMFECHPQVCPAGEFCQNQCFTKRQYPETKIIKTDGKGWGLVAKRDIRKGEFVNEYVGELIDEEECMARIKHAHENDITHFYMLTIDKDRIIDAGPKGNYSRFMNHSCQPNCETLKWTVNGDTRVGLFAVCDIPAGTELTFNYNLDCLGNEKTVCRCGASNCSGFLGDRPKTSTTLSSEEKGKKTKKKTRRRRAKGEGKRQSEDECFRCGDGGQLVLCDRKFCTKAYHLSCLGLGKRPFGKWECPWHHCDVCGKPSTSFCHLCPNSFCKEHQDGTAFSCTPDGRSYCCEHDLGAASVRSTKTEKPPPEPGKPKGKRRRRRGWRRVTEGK
In kind it is biochemical.

For experiment [11], the target named is RNA-editing ligase 1, mitochondrial (Trypanosoma brucei brucei, UniProt P86926). The experiment in a line: TbREL1 ligase inhibitors, dose response, biochemical, fluorescence, Trypanosoma brucei (AID 1117295). In kind it is functional.
RNA-editing ligase 1, mitochondrial, sequence (P86926 whole entry): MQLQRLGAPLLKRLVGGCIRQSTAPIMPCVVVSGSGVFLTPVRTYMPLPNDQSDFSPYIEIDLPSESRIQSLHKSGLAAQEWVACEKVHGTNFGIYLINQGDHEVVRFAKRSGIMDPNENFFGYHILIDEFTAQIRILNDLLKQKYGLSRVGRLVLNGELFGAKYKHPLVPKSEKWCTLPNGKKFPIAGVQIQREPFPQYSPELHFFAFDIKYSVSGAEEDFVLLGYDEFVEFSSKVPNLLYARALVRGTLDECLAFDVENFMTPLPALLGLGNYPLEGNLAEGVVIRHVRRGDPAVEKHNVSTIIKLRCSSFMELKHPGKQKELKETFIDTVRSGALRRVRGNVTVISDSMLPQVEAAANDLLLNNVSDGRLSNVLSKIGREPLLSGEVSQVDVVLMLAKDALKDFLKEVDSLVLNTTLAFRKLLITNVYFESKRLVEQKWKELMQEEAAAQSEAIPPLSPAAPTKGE
The target in experiment [12] is Voltage-gated N-type calcium channel alpha-1B subunit/Amyloid beta A4 precursor protein-binding family A member 1 (Homo sapiens, UniProt Q00975+Q02410). In kind it is protein assay.
Voltage-gated N-type calcium channel alpha-1B subunit/Amyloid beta A4 precursor protein-binding family A member 1, sequence (Q00975 whole entry): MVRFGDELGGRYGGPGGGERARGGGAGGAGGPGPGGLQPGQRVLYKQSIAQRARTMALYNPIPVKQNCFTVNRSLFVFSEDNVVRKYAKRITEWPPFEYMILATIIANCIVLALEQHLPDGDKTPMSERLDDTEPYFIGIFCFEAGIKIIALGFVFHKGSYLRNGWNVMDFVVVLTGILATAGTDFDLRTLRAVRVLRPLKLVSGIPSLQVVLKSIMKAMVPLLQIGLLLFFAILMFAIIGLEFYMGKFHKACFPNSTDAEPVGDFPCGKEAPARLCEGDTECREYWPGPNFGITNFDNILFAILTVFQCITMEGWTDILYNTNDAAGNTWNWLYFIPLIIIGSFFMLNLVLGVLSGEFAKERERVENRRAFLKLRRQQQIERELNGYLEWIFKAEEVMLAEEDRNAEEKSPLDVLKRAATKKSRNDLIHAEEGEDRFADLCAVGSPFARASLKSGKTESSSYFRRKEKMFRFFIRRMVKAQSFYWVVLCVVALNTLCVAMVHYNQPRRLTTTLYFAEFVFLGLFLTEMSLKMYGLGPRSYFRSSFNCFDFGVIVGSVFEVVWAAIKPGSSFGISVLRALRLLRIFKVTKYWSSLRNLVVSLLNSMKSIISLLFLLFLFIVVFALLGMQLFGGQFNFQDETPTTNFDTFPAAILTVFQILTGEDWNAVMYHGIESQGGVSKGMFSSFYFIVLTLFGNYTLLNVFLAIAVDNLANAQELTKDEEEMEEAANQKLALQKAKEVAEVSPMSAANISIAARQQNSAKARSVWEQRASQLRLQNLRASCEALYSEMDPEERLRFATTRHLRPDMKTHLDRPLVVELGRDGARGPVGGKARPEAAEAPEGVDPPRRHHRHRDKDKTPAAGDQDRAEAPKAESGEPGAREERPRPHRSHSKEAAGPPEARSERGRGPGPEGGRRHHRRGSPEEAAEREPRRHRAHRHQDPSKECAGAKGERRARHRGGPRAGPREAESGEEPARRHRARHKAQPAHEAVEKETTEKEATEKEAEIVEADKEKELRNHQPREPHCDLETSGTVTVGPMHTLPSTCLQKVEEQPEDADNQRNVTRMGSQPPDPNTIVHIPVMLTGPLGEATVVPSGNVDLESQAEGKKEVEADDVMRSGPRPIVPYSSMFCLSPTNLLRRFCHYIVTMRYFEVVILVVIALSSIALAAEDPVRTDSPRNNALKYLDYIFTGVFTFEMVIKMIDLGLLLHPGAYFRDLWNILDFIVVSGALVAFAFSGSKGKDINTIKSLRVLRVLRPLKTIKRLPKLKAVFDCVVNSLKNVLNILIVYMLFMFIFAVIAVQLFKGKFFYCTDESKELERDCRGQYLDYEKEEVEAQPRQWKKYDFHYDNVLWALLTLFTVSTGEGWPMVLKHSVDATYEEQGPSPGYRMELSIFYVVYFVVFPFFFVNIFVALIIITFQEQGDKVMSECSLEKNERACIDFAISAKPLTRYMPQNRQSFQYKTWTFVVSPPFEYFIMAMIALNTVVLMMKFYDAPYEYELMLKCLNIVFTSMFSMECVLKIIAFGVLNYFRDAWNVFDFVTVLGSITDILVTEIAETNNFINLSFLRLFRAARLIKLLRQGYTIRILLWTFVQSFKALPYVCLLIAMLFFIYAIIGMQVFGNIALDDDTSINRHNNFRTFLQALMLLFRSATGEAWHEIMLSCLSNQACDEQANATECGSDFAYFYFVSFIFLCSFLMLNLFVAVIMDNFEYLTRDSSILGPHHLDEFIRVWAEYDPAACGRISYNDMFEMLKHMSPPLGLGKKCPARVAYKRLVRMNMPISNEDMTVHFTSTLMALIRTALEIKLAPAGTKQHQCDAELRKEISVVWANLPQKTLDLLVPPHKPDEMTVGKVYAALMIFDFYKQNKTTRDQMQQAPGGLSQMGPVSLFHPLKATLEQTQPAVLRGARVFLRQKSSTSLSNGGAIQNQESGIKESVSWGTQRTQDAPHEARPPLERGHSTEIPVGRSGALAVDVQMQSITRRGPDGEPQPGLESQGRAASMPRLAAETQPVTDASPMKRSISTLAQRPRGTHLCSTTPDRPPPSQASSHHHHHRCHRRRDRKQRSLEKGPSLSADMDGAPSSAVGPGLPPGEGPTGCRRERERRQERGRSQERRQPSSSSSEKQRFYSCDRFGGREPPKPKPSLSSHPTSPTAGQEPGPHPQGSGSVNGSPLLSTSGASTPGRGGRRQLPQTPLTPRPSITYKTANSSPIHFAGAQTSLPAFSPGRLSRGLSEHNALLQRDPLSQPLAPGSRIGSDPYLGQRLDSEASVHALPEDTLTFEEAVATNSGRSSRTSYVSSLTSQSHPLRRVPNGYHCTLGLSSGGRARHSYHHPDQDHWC
Voltage-gated N-type calcium channel alpha-1B subunit/Amyloid beta A4 precursor protein-binding family A member 1, sequence (Q02410 whole entry): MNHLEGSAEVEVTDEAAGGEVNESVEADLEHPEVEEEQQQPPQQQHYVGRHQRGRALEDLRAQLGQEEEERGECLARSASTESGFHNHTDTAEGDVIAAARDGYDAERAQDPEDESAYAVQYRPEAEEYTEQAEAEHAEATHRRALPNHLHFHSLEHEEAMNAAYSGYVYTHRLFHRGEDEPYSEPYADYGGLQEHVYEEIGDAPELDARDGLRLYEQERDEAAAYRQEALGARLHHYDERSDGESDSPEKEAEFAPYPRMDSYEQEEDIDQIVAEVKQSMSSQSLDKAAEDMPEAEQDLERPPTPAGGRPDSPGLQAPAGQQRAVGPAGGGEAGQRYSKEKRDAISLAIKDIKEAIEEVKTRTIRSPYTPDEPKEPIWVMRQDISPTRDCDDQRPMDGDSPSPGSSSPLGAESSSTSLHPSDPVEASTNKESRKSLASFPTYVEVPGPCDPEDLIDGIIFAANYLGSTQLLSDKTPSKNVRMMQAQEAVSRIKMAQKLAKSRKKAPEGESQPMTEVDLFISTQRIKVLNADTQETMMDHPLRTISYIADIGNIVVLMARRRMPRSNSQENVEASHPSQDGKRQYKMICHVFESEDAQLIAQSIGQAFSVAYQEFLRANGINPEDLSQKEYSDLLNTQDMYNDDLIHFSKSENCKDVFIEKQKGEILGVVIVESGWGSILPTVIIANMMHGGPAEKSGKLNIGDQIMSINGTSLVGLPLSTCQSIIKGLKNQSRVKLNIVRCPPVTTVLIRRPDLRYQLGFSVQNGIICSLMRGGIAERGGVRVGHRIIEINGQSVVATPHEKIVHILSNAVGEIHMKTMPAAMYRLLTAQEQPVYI
Experiment [13] in a line: growth suppression of PTEN-null colon cells, dose response, cell-based, HCT116 PTEN knockout (AID 1047).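 Further: HCT116 colon tumor cells with PTEN knocked out; cells exposed to compound for 60 hours before readout; potency for loss of cell viability measured by luminescence.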 In kind it is functional.

Broadly, the EC50 is the concentration needed to bring the measured effect to its halfway point. For orientation: IC50 means the concentration that gives 50% inhibition. The AC50 is the concentration giving half of the maximal activity seen.

As to `CCCCCCCCCCCCCCCCn1cc[n+](C)c1`, the EC50 was 149 µM (active) in experiment [1]; 1.97 µM (active) in [2]; 1.72 µM (active) in experiment [2] (Streptococcus sp. 'group A'); 5.97 µM (active) and > 150 µM (not active) in experiment [3]; 4.64 µM (active) in [5]; 8.54 µM (active) in experiment [5] (Streptococcus). For the same molecule, in experiment [7], the EC50 is 0.44 µM (active). In addition, the IC50 in experiment [4] is on record as 11.4 µM (not active). In [6], the AC50 was 3.48 µM (active).
For the molecule `O=C(Nc1ccccc1Cl)/C(Cl)=C(\Cl)[S+]([O-])c1ccccc1` (stereo unspecified), the EC50 in experiment [1] is 3.5 µM (active); in experiment [2] (Streptococcus sp. 'group A'), 1.53 µM (active); in [3], 331 nM (active); in experiment [5] (Streptococcus) it was 5.14 µM (active). For the same molecule, the AC50 was < 0.195 µM (active) in [6] and 2.07 µM (active) in experiment [8].
With `O=C(NC1(O)C(=O)c2ccccc2C1=O)c1ccccc1`, the concentration for half-maximal inhibition (IC50) in [9] was 49 µM (not active); in experiment [11], 13.7 µM (inactive). Also, the AC50 in experiment [10] was 6.87 µM (active).
On to `Cc1ccc(C)c(S(=O)(=O)/N=C2\C=C(NS(=O)(=O)c3ccccc3)C(=O)c3ccccc32)c1`, for which, in experiment [10], the AC50 is > 20 µM (inactive).
Take `Cc1cc(C)nc(/N=c2/ssnc2Cl)c1`: in [12], the IC50 is > 50 µM (inactive). The EC50 in experiment [13] was 52.3 µM (active).
